From patent publication US11851391B2, “Antifungal compounds and methods of forming the same” (University of Kentucky Research Foundation, priority 2018, dated 2023)
Values after ≈ are worked out from the molar mass of the structure shown. Where two headings read alike, the source gives them in different places.

Assays:
[1] = tested on: murine red blood cells (mRBCs); conditions: for Percentage of hemolysis (±SDEV): mouse, 60 min
Procedure, shortened: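 mRBCs washed four times in PBS, resuspended at 10^7 mRBC/mL, exposed to test bishydrazones at 37° C for 60 min. ddH2O as blank, 1% v/v Triton X-100 as positive control; % hemolysis = (sample − blank absorbance)×100/positive-control absorbance.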

[2] = tested on: Candida glabrata ATCC 2001 (strain H); assay: MIC determination, in vitro antifungal assay (CLSI M27-A3); assay type: cell-based; conditions: MIC-0, 48 h at 35° C.
Procedure, shortened: (§1)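 Yeast inoculum (2-4×10^3 CFU/mL, from OD600 0.12 suspension of overnight YPD culture) tested in MOPS-buffered (0.165 M) RPMI 1640, pH 7.0, at 35 °C. Method follows CLSI M27-A3 broth microdilution, with DMSO kept below 1.25% final.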

[3] = tested on: Candida krusei ATCC 6258 (strain I); assay: as above; assay type: cell-based; conditions: MIC-0, 48 h at 35° C.
Procedure, shortened: as §1

[4] = tested on: human lung carcinoma cell line A549; assay: In vitro cytotoxicity assay (resazurin); assay type: cell-based; conditions: 24 h
Procedure: The human bronchus normal cell line BEAS-2B (ATCC CRL-9609) and the human lung carcinoma cell line A549 (ATCC CRL-185) were kind gifts from the laboratories of Dr. Matthew S. Gentry (University of Kentucky, Lexington, KY, USA) and Dr. David K. Orren (University of Kentucky, Lexington, KY, USA). The mammalian cells were grown in Dulbecco's Modified Eagle's Medium (DMEM) (from ATCC) with 10% fetal bovine serum (FBS) (from ATCC) and 1% Pen/Strep (from ATCC). Cell lines were cultured at 37° C. with 5% CO2 and passaged by trypsinization with 0.05% trypsin:0.53 mM EDTA (from ATCC). Cell confluency was determined by using a Nikon Eclipse TS100 microscope (Minato, Tokyo, Japan).
Cytotoxicity assays were performed as previously described with slight modifications. A549 and BEAS-2B cells were first thawed from stocks and grown. The confluent cells were transferred to a 96-well microtiter plates at density of 3000 cells/well. The 96-well plates were incubated at 37° C. with 5% CO2 overnight. […] The stock solutions were serially diluted in 1.5 mL eppendorf tubes to achieve concentrations of 31-0.12 mg/mL. 1 μL of these 1000× compound stock solutions was then added to 999 μL of DMEM medium in 1.5 mL eppendorf tubes to obtain final concentrations of 31-0.12 μg/mL. […] The 96-well plates were further incubated for 24 h at 37° C. with 5% CO2. To evaluate cell survival, each well was treated with 10 μL (25 mg/L) of resazurin sodium salt (Sigma-Aldrich, St. Louis, MO, USA) and incubated for another 6 h. Metabolically active cells can convert resazurin to the highly fluorescent dye, resorufin, and be detected at A560 excitation and A590 emission using a SpectraMax M5 plate reader (Molecular Devices, San Jose, CA, USA). […] The percentage survival rates were calculated by using the following formula: % cell survival=[(fluorescence of sample)−(fluorescence of background)]×100/[(fluorescence of negative control)−(fluorescence of background)]. Experiments were done in duplicate.

[5] = Nakaseomyces glabratus, ATCC2001, 48 h, read-out: MIC
[6] = Pichia kudriavzevii, ATCC6258, 48 h, read-out: MIC
[7] = A549 (printed A459) at 31 μg/mL

Row | SMILES | hemolytic activity (in words) [1] | Percentage of hemolysis (±SDEV) ([1]; 0.975 μg/mL) | Percentage of hemolysis (±SDEV) ([1]; 1.95 μg/mL) | Percentage of hemolysis (±SDEV) ([1]; 3.9 μg/mL) | Percentage of hemolysis (±SDEV) ([1]; 7.8 μg/mL) | Percentage of hemolysis (±SDEV) ([1]; 15.6 μg/mL) | Percentage of hemolysis (±SDEV) ([1]; 31.3 μg/mL) | MIC [2, 5] | MIC [3] | MIC [3, 6] | Percentage of hemolysis (±SDEV) ([1]; 62.5 μg/mL) | toxicity (in words) ([4]; A549 at 15.5 μg/mL) | toxicity (in words) [4, 7] | MIC [2]
1 | C(=N\Nc1ccccc1)/c1ccc(-c2cccc(/C=N/Nc3ccccc3)c2)cc1 [Compound 7a] | lack of hemolytic activity | 0% | 3.5 ± 3.3% | 1.5 ± 0.9% | 8.5 ± 5.1% | 14.1 ± 0.1% | 16.7 ± 0.9% | > 31.3 µg/mL | 7.8 µg/mL (≈ 20 µM) | 7.8 to 15.6 µg/mL (≈ 20 to 39.9 µM) | – | – | – | –
2 | Fc1cccc(N/N=C/c2ccc(-c3cccc(/C=N/Nc4cccc(F)c4)c3)cc2)c1 [Compound 12a] | lack of hemolytic activity | 4.6 ± 2.5% | 0.6 ± 0.6% | 2.5 ± 2.7% | 7.9 ± 0.1% | – | 32.6 ± 9.6% | > 31.3 µg/mL | 1.95 µg/mL (≈ 4.57 µM) | 1.95 to 3.9 µg/mL (≈ 4.57 to 9.14 µM) | 39.5 ± 12.1% | no toxicity | – | –
3 | COc1ccc(N/N=C/c2ccc(-c3cccc(/C=N/Nc4ccc(OC)cc4)c3)cc2)cc1 [Compound 15a] | lack of hemolytic activity | 2.6 ± 3.4% | 4.5 ± 1.7% | 3.0 ± 1.6% | 2.6 ± 2.8% | 7.8 ± 3.3% | 9.6 ± 1.7% | – | 3.9 µg/mL (≈ 8.66 µM) | 1.95 to 3.9 µg/mL (≈ 4.33 to 8.66 µM) | – | – | generally non-toxic | –
4 | COc1ccc(N/N=C/c2ccc(-c3ccc(/C=N/Nc4ccc(OC)cc4)cc3)cc2)cc1 [Compound 15b] | lack of hemolytic activity | 1.6 ± 2.3% | 1.9 ± 0.3% | 2.8 ± 0.6% | 4.2 ± 3.1% | 6.7 ± 2.0% | 12.6 ± 4.7% | 7.8 to 15.6 µg/mL (≈ 17.3 to 34.6 µM) | 7.8 µg/mL (≈ 17.3 µM) | 7.8 to 15.6 µg/mL (≈ 17.3 to 34.6 µM) | – | – | generally non-toxic | 7.8 µg/mL (≈ 17.3 µM)
5 | Fc1ccc(N/N=C/c2ccc(-c3cccc(/C=N/Nc4ccc(F)cc4)c3)cc2)cc1 [Compound 17a] | – | 0% | 6.0 ± 2.1% | 4.3 ± 1.6% | 9.5 ± 3.3% | 9.9 ± 2.1% | 14.4 ± 0.9% | > 31.3 µg/mL | – | > 31.3 µg/mL | 26.1 ± 11.1% | – | generally non-toxic | –
6 | Fc1ccc(N/N=C/c2ccc(-c3ccc(/C=N/Nc4ccc(F)cc4)cc3)cc2)cc1 [Compound 17b] | – | 0% | 1.1 ± 1.5% | 0.7 ± 1.1% | 3.2 ± 3.0% | 9.0 ± 8.5% | 9.6 ± 6.7% | 7.8 to 15.6 µg/mL (≈ 18.3 to 36.6 µM) | 1.95 µg/mL (≈ 4.57 µM) | 1.95 µg/mL (≈ 4.57 µM) | 28.3 ± 4.1% | – | – | 15.6 µg/mL (≈ 36.6 µM)
7 | C/C(=N\Nc1ccc(F)cc1)c1ccc(-c2ccc(/C(C)=N/Nc3ccc(F)cc3)cc2)cc1 [Compound 17c, 4,4′-bis((E)-1-(2-(4-fluorophenyl)hydrazono)ethyl)-1,1′-biphenyl] | – | 1.4 ± 1.1% | 2.6 ± 0.9% | 2.6 ± 2.7% | 5.9 ± 0.3% | 7.4 ± 1.1% | 9.5 ± 2.2% | 15.6 µg/mL (≈ 34.3 µM) | 1.95 µg/mL (≈ 4.29 µM) | 1.95 to 3.9 µg/mL (≈ 4.29 to 8.58 µM) | 26.2 ± 7.7% | no toxicity | – | –
8 | Fc1ccc(N/N=C/c2ccc(-c3cccc(/C=N/Nc4ccc(F)cc4F)c3)cc2)c(F)c1 [Compound 20a] | lack of hemolytic activity | 0% | 4.5 ± 2.3% | 4.2 ± 2.8% | 8.6 ± 1.6% | 14.6 ± 1.6% | 14.6 ± 0.7% | 15.6 µg/mL (≈ 33.7 µM) | 1.95 µg/mL (≈ 4.22 µM) | 1.95 to 3.9 µg/mL (≈ 4.22 to 8.43 µM) | – | no toxicity | – | –
